Source: patent US6048890A, “Phenylamidinothiophene derivatives and anti-inflammatory agent containing the same” (Kaken Pharmaceutical Co., Ltd., priority 1995, dated 2000)
“And” between values parts separate entries of the source, which are not always exact repeats. Equal values may be shown once. Read-outs that look alike come from different tables or passages of the source.

Columns and labels:
[1] = test system: rat adjuvant arthritis; experiment: Action on rat adjuvant arthritis (paw swelling inhibition); format: in vivo, male Lewis rats; settings: mean of 4 rats (standard error); for Swelling inhibition (%), Primary inflammation (inoculated paw): measured 3 days after adjuvant inoculation; for Swelling inhibition (%), Secondary inflammation (uninoculated paw): measured 17 days after adjuvant inoculation
Procedure: Seven-week old male Lewis rats (4 rats in one group) were injected under the plantar skin of the right hind paw with 0.6 mg/0.1 ml of a suspension of human tubercle bacillus, killed Mycobacterium tuberculosis H37 RA in liquid paraffin, thereby inducing adjuvant arthritis. The volume of the adjuvant-inoculated paw (primary inflammation) was measured 3 days after the inoculation of adjuvant and the volume of the adjuvant-uninoculated paw (secondary inflammation) 17 days after the inoculation of adjuvant. The swelling rate of each paw was calculated with respect to the volume of the paw before the inoculation of adjuvant. Ten mg of the instant compound was suspended in 10 ml of a 0.5% by weight aqueous solution of carboxymethyl cellulose and the oral administration of the obtained suspension began on day of adjuvant inoculating and continued for 17 days in a dose of 10 mg/kg one time per day.
The swelling rate and inhibition rate were calculated according to the following formulae: [formula]
Each value is an average value for 4 rats in one group and the value in parentheses is standard error.

[2] = molecular target: T1, cyclooxygenase of sheep seminal vesicle gland (Ovis aries, UniProt P05979); experiment: Action on activity of cyclooxygenase of sheep seminal vesicle gland; format: biochemical
T1 construct: purchased CAYMAN CO., LTD; host or cells: sheep seminal vesicle gland
T1 sequence (P05979 25-600): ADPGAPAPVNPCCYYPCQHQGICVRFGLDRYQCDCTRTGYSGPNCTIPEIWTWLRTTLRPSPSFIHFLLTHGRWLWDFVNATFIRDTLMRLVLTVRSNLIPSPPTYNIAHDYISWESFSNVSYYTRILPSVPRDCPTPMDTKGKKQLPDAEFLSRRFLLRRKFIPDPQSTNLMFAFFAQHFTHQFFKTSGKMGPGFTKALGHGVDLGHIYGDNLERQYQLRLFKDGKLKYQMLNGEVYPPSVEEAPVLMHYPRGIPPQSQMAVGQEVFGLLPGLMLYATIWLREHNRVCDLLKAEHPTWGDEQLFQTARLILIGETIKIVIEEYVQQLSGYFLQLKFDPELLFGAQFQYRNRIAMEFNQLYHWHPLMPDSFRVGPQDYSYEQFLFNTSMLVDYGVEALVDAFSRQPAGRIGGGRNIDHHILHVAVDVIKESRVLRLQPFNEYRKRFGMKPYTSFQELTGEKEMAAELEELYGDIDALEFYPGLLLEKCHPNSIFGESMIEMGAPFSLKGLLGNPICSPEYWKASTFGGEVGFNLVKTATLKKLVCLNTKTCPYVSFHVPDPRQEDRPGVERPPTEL
Procedure: Two hundred and fifty μl of an enzyme solution containing each test compound [5 mM triptophan, 200 nM hematin, 0.04% by weight Tween 20, 10 units of cyclooxygenase of sheep seminal vesicle gland (made by CAYMAN CO., LTD.), 2 μM [1-^14 C] arachidonic acid, 0.1 M Tris-hydrochloric acid buffer solution (pH: 8.0)], underwent a reaction at 25° C. for 6 minutes. The reaction was terminated by addition of 0.5 ml of a 0.2 M citric acid buffer solution (pH 3.0). [1-^14 C]arachidonic acid was extracted with ethyl acetate and separated by a thin layer chromatography. The radioactivity of the resulting arachidonic acid fraction was determined with a scintillation counter and the inhibition was calculated.
The inhibition value was calculated according to the following formula: [formula]

[3] = test system: stress ulcer in mice; format: in vivo; settings: for Ulcer index: 15 minutes before 7 h constraint under water immersion, average of sum of ulcer lengths
Procedure: Six-week old male ddy […] (10 rats in one group) were completely fasted overnight and then loaded with constraint under water immersion for 7 hours. The rats were observed under a stereoscopic microscope to examine production of gastric ulcer. Sum (mm) of lengths of ulcers for each animal was taken as ulcer index. Ten mg, 30 mg or 100 mg of the instant compound was mixed with 0.15 ml of Tween 80 and suspended into a 0.5% by weight aqueous solution of gum arabic to give a total 10 ml of a suspension. The suspension was orally administered 15 minutes before loading of the constraint under water immersion. Indomethacin was used as a comparative drug.
The test results are shown in Table 3 in terms of an average value of ulcer indexes.

[4] = comparative drug, 1 mg/kg, 1 mg/kg
[5] = comparative drug, 1 mg/kg, listed as indomethacin, 1 mg/kg
[6] = 10 mg/kg oral once daily for 17 days

| SMILES | Swelling inhibition (%), Primary inflammation (inoculated paw) [1, 6] | Swelling inhibition (%), Secondary inflammation (uninoculated paw) [1, 6] | further results |
| --- | --- | --- | --- |
| COc1ccc2c(c1)c(CC(=O)O)c(C)n2C(=O)c1ccc(Cl)cc1 [Indomethacin, indomethacin, reference compound] | – | – | Swelling inhibition (%), Primary inflammation (inoculated paw) [1, 4]: 28.3 (4.10) %; Swelling inhibition (%), Primary inflammation (inoculated paw) [1, 5]: 28.8%; Swelling inhibition (%), Secondary inflammation (uninoculated paw) [1, 4]: 43.6 (9.42) %; Swelling inhibition (%), Secondary inflammation (uninoculated paw) [1, 5]: 43.6%; Inhibition of cyclooxygenase activity (in words) ([2]; 10^-6 M): completely inhibited the activity; inhibition at 0.1 µM ([2]; 10^-7 M, pH 8.0, 25° C., 6 minutes, average of two experiments): 66.2%; Concentrations at which the activity of cyclooxygenase was inhibited ([2]; dependent on dosage): ≥ 10^-8 M |
| CS(=O)(=O)c1ccc(-c2cc(C(=N)Nc3cccc(Cl)c3)sc2-c2ccc(F)cc2)cc1 [Example 1, 5-[N^1-(3-chlorophenyl)amidino]-2-(4-fluorophenyl)-3-(4-methylsulfonylphenyl)thiophene] | 31.5% and 31.5 (0.91) % | 48.9% and 48.9 (3.58) % | Ulcer index ([3]; 10 mg/kg oral): 6.5 mm; Ulcer index ([3]; 30 mg/kg oral): 10.8 mm; Ulcer index ([3]; 100 mg/kg oral): 9.6 mm; Ulcer index / ulcer-exacerbating action (in words) ([3]; compared with solvent-given group, up to 100 mg/kg (Example 1), 1 and 3 mg/kg (indomethacin)): no evident difference in ulcer index was observed even in the group given 100 mg/kg; inhibition at 100 µM ([2]; 10^-4 M, pH 8.0, 25° C., 6 minutes, average of two experiments): -2.2%; inhibition at 10 µM ([2]; 10^-5 M, pH 8.0, 25° C., 6 minutes, average of two experiments): 1.3%; inhibition at 1 µM ([2]; 10^-6 M, pH 8.0, 25° C., 6 minutes, average of two experiments): 3.4%; Inhibition of cyclooxygenase activity (in words) ([2]; even in 10^-4 M added group): did not inhibit the activity of cyclooxygenase |
| CS(=O)(=O)c1ccc(-c2cc(C(=N)Nc3ccc(F)cc3F)sc2-c2ccc(F)cc2)cc1 [Example 12] | 18.2 (2.73) % | 24.9 (10.2) % | – |
| COc1ccc(NC(=N)c2cc(-c3ccc(S(C)(=O)=O)cc3)c(-c3ccc(F)cc3)s2)cc1 [Example 11] | 35.0 (10.1) % | 37.1 (4.42) % | – |
| CS(=O)(=O)c1ccc(-c2cc(C(=N)Nc3ccc(Cl)cc3Cl)sc2-c2ccc(F)cc2)cc1 [Example 13] | 16.7 (3.25) % | 24.2 (5.05) % | – |
| CS(=O)(=O)c1ccc(-c2cc(C(=N)Nc3ccc(F)c(Cl)c3)sc2-c2ccc(F)cc2)cc1 [Example 18] | 27.9 (3.09) % | 48.9 (9.69) % | – |
| CS(=O)(=O)c1ccc(-c2cc(C(=N)Nc3ccc(F)cc3)sc2-c2ccc(F)cc2)cc1 [Example 6] | 26.3 (4.37) % | 57.2 (5.34) % | – |
| CS(=O)(=O)c1ccc(-c2cc(C(=N)Nc3ccc(Cl)c(Cl)c3)sc2-c2ccc(F)cc2)cc1 [Example 17] | 27.4 (7.02) % | 44.1 (3.83) % | – |
| CS(=O)(=O)c1ccc(-c2cc(C(=N)Nc3ccc(Cl)cc3)sc2-c2ccc(F)cc2)cc1 [Example 4] | 32.7 (7.40) % | 57.4 (8.54) % | – |
| CS(=O)(=O)c1ccc(-c2cc(C(=N)Nc3ccc(Br)cc3)sc2-c2ccc(F)cc2)cc1 [Example 7] | 36.1 (6.36) % | 48.8 (3.20) % | – |
| CS(=O)(=O)c1ccc(-c2cc(C(=N)Nc3ccccc3Cl)sc2-c2ccc(F)cc2)cc1 [Example 3] | 22.1 (4.94) % | 32.2 (10.8) % | – |
| CS(=O)(=O)c1ccc(-c2cc(C(=N)Nc3cccc(F)c3)sc2-c2ccc(F)cc2)cc1 [Example 5] | 23.5 (4.75) % | 34.7 (4.26) % | – |
| CS(=O)(=O)c1ccc(-c2cc(C(=N)Nc3ccccc3)sc2-c2ccc(F)cc2)cc1 [Example 2] | 22.6 (5.24) % | 28.4 (2.55) % | – |
